Results published in PubChem BioAssay (NCI).
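Compound exposure: 48 hours, 5 concentrations, 96-well plates. GI50 = concentration required for 50% inhibition of growth. TGI: concentration producing complete growth inhibition.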

What was measured:
Assay in all cases: DTP human tumour cell line panel, 48 h
KM12 colon = system: KM12 colon
UACC-257 melanoma = system: UACC-257 melanoma
M14 melanoma = system: M14 melanoma
CCRF-CEM leukemia = system: CCRF-CEM leukemia
SK-MEL-2 melanoma = system: SK-MEL-2 melanoma
NCI-H226 lung = system: NCI-H226 lung
OVCAR-5 ovarian = system: OVCAR-5 ovarian
NCI/ADR-RES ovarian = system: NCI/ADR-RES ovarian
PC-3 prostate = system: PC-3 prostate
HCC-2998 colon = system: HCC-2998 colon

Row | SMILES | TGI (KM12 colon) [µM] | TGI (UACC-257 melanoma) [µM] | TGI (M14 melanoma) [µM] | TGI (CCRF-CEM leukemia) [µM] | TGI (SK-MEL-2 melanoma) [µM] | TGI (NCI-H226 lung) [µM] | TGI (OVCAR-5 ovarian) [µM] | GI50 (KM12 colon) [µM] | GI50 (UACC-257 melanoma) [µM] | GI50 (NCI/ADR-RES ovarian) [µM] | TGI (NCI/ADR-RES ovarian) [µM] | GI50 (M14 melanoma) [µM] | GI50 (SK-MEL-2 melanoma) [µM] | GI50 (PC-3 prostate) [µM] | TGI (PC-3 prostate) [µM] | GI50 (NCI-H226 lung) [µM] | GI50 (OVCAR-5 ovarian) [µM] | TGI (HCC-2998 colon) [µM] | GI50 (CCRF-CEM leukemia) [µM] | GI50 (HCC-2998 colon) [µM]
1 | Cc1ccc(S(=O)(=O)N/N=C(\CCN2CCCC2)CC(c2ccccc2)c2c(O)c3ccccc3oc2=O)cc1 (configuration not stated) | > 100 | > 100 | > 100 | > 100 | > 100 | > 100 | > 100 | – | – | – | – | – | – | – | – | – | – | – | – | –
2 | OCCN(CCO)N=Nc1ccc(-c2nc3ccccc3[nH]2)cc1 | 55.4 | > 100 | > 100 | – | > 100 | > 100 | > 100 | 16.3 | 33.2 | 34 | 58 | 46.4 | 41.2 | 39.4 | > 100 | > 100 | > 100 | – | – | –
3 | Cn1ncc(=S)[nH]c1=S | – | – | > 100 | > 100 | > 100 | > 100 | > 100 | – | – | – | – | – | – | – | – | – | – | – | – | –
4 | O=C1NC(=O)C(C(=O)C(=O)Nc2ccc(Br)cc2)C(=O)N1 | – | > 100 | > 100 | > 100 | – | > 100 | – | – | – | – | – | – | – | – | – | – | – | > 100 | – | –
5 | Oc1cccc2c1NC1=C(CCC/C1=C\c1ccccc1)C2 | > 100 | > 100 | > 100 | > 100 | – | > 100 | – | – | – | – | – | – | – | – | – | – | – | > 100 | – | –
6 | O=S(=O)([O-])[O-].[OH3+].[OH3+].[OH3+].[Ru+2].c1ccccc1 | > 100 | > 100 | > 100 | > 100 | > 100 | > 100 | > 100 | > 100 | > 100 | – | – | > 100 | > 100 | – | – | > 100 | > 100 | > 100 | > 100 | > 100
7 | CC(Cn1c2c3ccccc3ccc2c2oc(=O)c3ccccc3c21)N(C)C (configuration not stated) | > 100 | > 100 | > 100 | > 100 | > 100 | – | > 100 | – | – | – | – | – | – | – | – | – | – | – | – | –
8 | CC(=O)N(C)OC(=O)CC(=O)c1ccccc1 | > 100 | > 100 | > 100 | > 100 | – | > 100 | > 100 | – | – | – | – | – | – | – | – | – | – | > 100 | – | –
9 | CN(C)c1ccc(-c2cc(=O)c3ccccc3[nH]2)cc1 | > 100 | > 100 | > 100 | > 100 | – | > 100 | – | – | – | – | – | – | – | – | – | – | – | > 100 | – | –
10 | CCN(CC)CCCN(c1cc(OC)cc2nccnc12)S(=O)(=O)c1ccc(C)cc1 | > 100 | > 100 | > 100 | > 100 | > 100 | > 100 | > 100 | – | – | – | – | – | – | – | – | – | – | > 100 | – | –
11 | CCCc1c2c([nH]c(=O)c1C)C(=O)c1[nH]c(=O)c(C)c(CCC)c1C2=O | – | 6.99 | 17.3 | 73.2 | – | > 100 | > 100 | – | – | – | – | – | – | – | – | – | – | > 100 | – | –
12 | COc1nc2c(OC)cccc2c(OC)c1C=O | > 100 | > 100 | > 100 | > 100 | > 100 | > 100 | – | – | – | – | – | – | – | – | – | – | – | – | – | –
13 | CC(=O)N1CCC2(C=Nc3ccccc32)CC1 | > 100 | > 100 | > 100 | > 100 | > 100 | – | > 100 | – | – | – | – | – | – | – | – | – | – | > 100 | – | –
14 | O=C(Cc1nc2ccccc2s1)C(=O)Nc1ccc(Cl)cc1 | > 100 | > 100 | > 100 | – | > 100 | > 100 | > 100 | – | – | – | – | – | – | – | – | – | – | > 100 | – | –
15 | COc1cc(Nc2cnc3cc(C(F)(F)F)ccc3n2)cc(OC)c1OC | – | > 100 | – | > 100 | > 100 | > 100 | > 100 | – | – | – | – | – | – | – | – | – | – | > 100 | – | –
16 | O=C(Nc1ccc(Cl)c(C(F)(F)F)c1)C(=O)C(C(=O)/C=C/c1ccccc1)C1OC(=O)c2ccccc21 (configuration not stated) | > 100 | > 100 | > 100 | > 100 | – | > 100 | > 100 | – | – | – | – | – | – | – | – | – | – | > 100 | – | –
17 | CCNc1nnc(CSc2nc(-c3ccccc3)c(-c3ccccc3)[nH]2)s1 | 23.9 | 34.9 | 35.7 | 40.3 | 41.9 | 35 | 39.8 | – | – | – | – | – | – | – | – | – | – | – | – | –
18 | O=C(O)c1ccc(NC(=O)C2C(=O)C(=O)N(c3ccc(C(=O)O)cc3)C2=O)cc1 (configuration not stated) | > 100 | > 100 | – | > 100 | > 100 | > 100 | > 100 | – | – | – | – | – | – | – | – | – | – | > 100 | – | –
19 | Nc1ccccc1C#CC#Cc1ccccc1N | 36.2 | 24.5 | 65.8 | – | 51.7 | – | – | 8.46 | 4.56 | 4.63 | 29.7 | 7.34 | 21.7 | 23.1 | > 100 | – | – | – | – | –
